Data from ChEMBL document CHEMBL1671754, “Reduced expression of the vca0421 gene of Vibrio cholerae O1 results in innate resistance to ciprofloxacin” (2010).
In brackets after ≈: the same amount, converted by molar mass.

Experiments:
Type in all cases: functional
Escherichia coli [1] = assay: Antibacterial activity against Escherichia coli JM109 harboring plasmid ptac85-vca0421
[2] = Antibacterial activity against Vibrio cholerae O1 569B harboring gyrA and parC genes by 2-fold agar dilution method
[3] = Antibacterial activity against Vibrio cholerae O1 CIP0.25-1 harboring Ser to Ile mutation at 83 position in gyrA and parC genes by 2-fold agar dilution method
Escherichia coli [4] = assay: Antibacterial activity against Escherichia coli JM109 harboring plasmid ptac85
[5] = Antibacterial activity against Vibrio cholerae O1 mTn-321 harboring Ser to Ile mutation at 83 position in gyrA and parC genes by 2-fold agar dilution method

| Structure (SMILES) | MIC (Escherichia coli [1]) [µg/mL] | MIC [2] [µg/mL] | MIC [3] [µg/mL] | MIC (Escherichia coli [4]) [µg/mL] | MIC [5] [µg/mL] |
| --- | --- | --- | --- | --- | --- |
| CN(C)[C@@H]1C(O)=C(C(N)=O)C(=O)[C@@]2(O)C(O)=C3C(=O)c4c(O)cccc4[C@@](C)(O)[C@H]3C[C@@H]12 [TETRACYCLINE] | 8 (≈ 18 µM) | 0.5 (≈ 1.13 µM) | 4 (≈ 9 µM) | 16 (≈ 36 µM) | – |
| C[C@@H]1CN(c2c(F)c(N)c3c(=O)c(C(=O)O)cn(C4CC4)c3c2F)C[C@H](C)N1 [SPARFLOXACIN] | 0.125 (≈ 0.319 µM) | 0.004 (≈ 0.0102 µM) | 0.125 (≈ 0.319 µM) | 0.25 (≈ 0.637 µM) | 0.0625 (≈ 0.159 µM) |
| CCn1cc(C(=O)O)c(=O)c2cc(F)c(N3CCNCC3)cc21 [NORFLOXACIN] | 1 (≈ 3.13 µM) | 0.0078 (≈ 0.0244 µM) | 2 (≈ 6.26 µM) | 1 (≈ 3.13 µM) | 0.125 (≈ 0.391 µM) |
| CCn1cc(C(=O)O)c(=O)c2cc(F)c(N3CCNCC3)nc21 [ENOXACIN] | 2 (≈ 6.24 µM) | 0.0313 (≈ 0.0977 µM) | 2 (≈ 6.24 µM) | 4 (≈ 12.5 µM) | 0.25 (≈ 0.78 µM) |
| O=C(O)c1cn(C2CC2)c2cc(N3CCNCC3)c(F)cc2c1=O [CIPROFLOXACIN] | – | 0.004 (≈ 0.0121 µM) | – | – | – |
